2 compounds from US20230192650A1, “NOVEL ACID SECRETION INHIBITOR AND USE THEREOF” (Ildong Pharmaceutical Co., Ltd., priority 2020, published 2023) can be followed below.

Structures are written as SMILES. Bounds are passed on as bounds.

The target of series [1] is T1, proton pump (H+/K+-ATPase) (Sus scrofa, UniProt P19156).
T1 construct: Gastric vesicles isolated from pig stomach were prepared according to the document; from tissue; host or cells: pig stomach (gastric vesicles)
As to the kind of experiment: Proton pump (H+/K+-ATPase) inhibitory activity depending on pH. The series is classed as biochemical, pig. Here is the method:
The proton pump (H+/K+-ATPase) inhibitory activity of the prepared compound was measured as follows. Gastric vesicles isolated from pig stomach were prepared according to the document (see Methods Mol Biol. 2016; 1377:19-27). The protein contents of the gastric vesicles were quantified with a Bicinchoninic Acid (BCA) kit (Sigma Aldrich, BCA1). To each well of a 96-well plate, 70 μl of 50 mM Tris-HEPES buffer (pH 6.5) containing 125 ng of vesicles, DMSO or a substance for each concentration (final DMSO concentration of 1%), 5 mM MgCl2, and 10 mM KCl was added and pre-incubated at 37° C. for 30 minutes. Then, 10 μl of 2 mM ATP was added to each well, followed by enzymatic reaction at 37° C. for 40 minutes. The reaction was stopped by adding 20 μl of malachite green reagent (Sigma Aldrich, MAK307) and the resulting mixture was allowed to stand at room temperature for 30 minutes. By measuring the absorbance at 620 nm using a Microplate Reader (Biotek, Synergy H4), an amount of inorganic phosphorus released from ATP degradation was measured and the enzyme activity was measured. The absorbance of the enzyme-reacted sample without adding KCl was measured, and the measurement value was subtracted from all the above measurements. Assuming that the group treated with 1% DMSO (DMSO control group) was 100% H^+/K^+-ATPase enzyme activity, and that the group without KCl (KCl control group) was 0% H^+/K^+-ATPase enzyme activity, % inhibition was calculated as in the following Equation 1: […]
In order to measure the change in proton pump (H+/K+-ATPase) inhibitory activity depending on the pH of the prepared compound, an experiment was performed in the same manner as in Test Example 1 under three conditions of pH 6.5, pH 7.0, and pH 7.5.

In series [2] the test system is basal gastric acid secretion. The experiment in a line: Inhibition of basal gastric acid secretion in pylorus-ligated rat (Shay's rat model). The series is classed as in vivo. Particulars: SD rats, 10 mg/kg oral 1 h before pylorus ligation, 5 hours after ligation. Here is the method:
The inhibitory efficacy of the prepared compound on basal gastric acid secretion was measured by employing the Shay's rat model [Shay H, et al., Gastroenterology, 1945, 5, 43˜61].
Male Sprague Dawley (SD) rats were divided into 8 rats per group, and fasted with only water supply for 24 hours. Then, one hour before pylorus ligation, the control group was orally administered with 0.5% methylcellulose solution, and the other groups were orally administered with the Example compound at a dose of 10 mg/10 mL/kg suspended in 0.5% methylcellulose solution.
After 5 hours of ligation, the rats were sacrificed under Zoletil and Xylazine anesthesia, and the gastric contents were enucleated by incision of the abdominal cavity. The obtained contents were centrifuged at 3,000 rpm for 10 minutes to separate only the supernatant, and gastric juice was collected. 1 mL of the collected gastric juice was taken into a beaker and the pH was measured using an electrode pH meter. To 1 mL of gastric juice, 0.03 mL each of 0.5% dimethylaminoazobenzene alcohol solution and 1% phenolphthalein alcohol solution was added to make red color, and then 0.1N NaOH solution was added, wherein the volume until the rose tint appeared was determined as the total acidity, and the total acid output was obtained by multiplying the acidity of gastric juice by the amount of gastric juice. The % inhibitory activity of the Example compound was calculated according to the following Equation 2, and results thereof are shown in Table 6 below.
% inhibitory activity of Example compound=[(total gastric acid secretion in Control group−total gastric acid secretion in group treated with Example compound)/total gastric acid secretion in Control group]×100 [Equation 2]

Series [3] concerns indomethacin-induced gastric damage. The experiment in a line: Gastric damage inhibitory efficacy in rat of indomethacin-induced gastric damage. Particulars: SD rats, 10 mg/kg oral 1 hour before indomethacin, 5 hours. It is filed as in vivo. On the procedure: The experiment was performed as follows to evaluate the gastric ulcer inhibitory efficacy of the Example compound in rat models of gastric damage induced by indomethacin, a drug in the NSAID classes.
Among fasted male Sprague Dawley rats, the control group was orally administered with 0.5% methylcellulose solution, and the other groups were orally administered with the Example compound at a dose of 10 mg/10 mL/kg suspended in 0.5% methylcellulose solution.
In 1 hour after oral administration of the Example compound, indomethacin was orally administered, and after 5 hours, the test animals were sacrificed and the stomach was enucleated. After washing the enucleated surface of the stomach, the greater curvature of the stomach was incised. The incised stomach was spread out and fixed. Then, the ratio of the gastric damaged area was obtained by the total gastric area and the damaged area on the gastric mucosa surface using ImageJ software (NIH, Bethesda), and the % inhibitory activity of the Example compound was calculated according to the following Equation 3.
% inhibitory activity of Example compound=[(ratio of gastric damaged area in control group−ratio of gastric damaged area in group treated with Example compound)/(ratio of gastric damaged area in control group)]×100 [Equation 3]

Series [4] in a line: Pharmacokinetic test in beagle dogs. It is filed as in vivo. Particulars: blood, beagle dog; for bioavailability: oral 10 mg/kg vs intravenous 5 mg/kg, read-out: F (%) bioavailability; for AUC(0-inf): single oral dose 10 mg/kg. Here is the method:
The Example compound was dissolved in PBS containing 5% DMSO and 20% hydroxypropyl (HP) beta cyclodextrin, and administered intravenously to rats at a dose of 5 mg/kg, and the Example compound was suspended in distilled water containing 0.5% methylcellulose, and orally administered to rats at a dose of 10 mg/kg. The Example compound was dissolved in PBS containing 5% DMSO and 20% hydroxypropyl (HP) beta cyclodextrin, and administered intravenously to beagle dogs at a dose of 5 mg/kg, and the Example compound was suspended in distilled water containing 0.5% methylcellulose, and orally administered to beagle dogs at a dose of 10 mg/kg. Blood samples were collected at scheduled time points after the single intravenous and oral administration of the Example compound to normal rats and beagle dogs. Acetonitrile containing an internal standard material was added to the collected blood sample for protein precipitation. The sample extracted through protein precipitation was centrifuged, and then the supernatant was injected into LC-MS/MS to be subjected to quantitative analysis of the blood concentration of the Example compound. The AUC for each administration route was calculated based on the blood concentration-time profile obtained as a result above, and based on this, the bioavailability (F) upon oral administration was calculated.

T1 sequence (P19156 2-1034 limits assumed): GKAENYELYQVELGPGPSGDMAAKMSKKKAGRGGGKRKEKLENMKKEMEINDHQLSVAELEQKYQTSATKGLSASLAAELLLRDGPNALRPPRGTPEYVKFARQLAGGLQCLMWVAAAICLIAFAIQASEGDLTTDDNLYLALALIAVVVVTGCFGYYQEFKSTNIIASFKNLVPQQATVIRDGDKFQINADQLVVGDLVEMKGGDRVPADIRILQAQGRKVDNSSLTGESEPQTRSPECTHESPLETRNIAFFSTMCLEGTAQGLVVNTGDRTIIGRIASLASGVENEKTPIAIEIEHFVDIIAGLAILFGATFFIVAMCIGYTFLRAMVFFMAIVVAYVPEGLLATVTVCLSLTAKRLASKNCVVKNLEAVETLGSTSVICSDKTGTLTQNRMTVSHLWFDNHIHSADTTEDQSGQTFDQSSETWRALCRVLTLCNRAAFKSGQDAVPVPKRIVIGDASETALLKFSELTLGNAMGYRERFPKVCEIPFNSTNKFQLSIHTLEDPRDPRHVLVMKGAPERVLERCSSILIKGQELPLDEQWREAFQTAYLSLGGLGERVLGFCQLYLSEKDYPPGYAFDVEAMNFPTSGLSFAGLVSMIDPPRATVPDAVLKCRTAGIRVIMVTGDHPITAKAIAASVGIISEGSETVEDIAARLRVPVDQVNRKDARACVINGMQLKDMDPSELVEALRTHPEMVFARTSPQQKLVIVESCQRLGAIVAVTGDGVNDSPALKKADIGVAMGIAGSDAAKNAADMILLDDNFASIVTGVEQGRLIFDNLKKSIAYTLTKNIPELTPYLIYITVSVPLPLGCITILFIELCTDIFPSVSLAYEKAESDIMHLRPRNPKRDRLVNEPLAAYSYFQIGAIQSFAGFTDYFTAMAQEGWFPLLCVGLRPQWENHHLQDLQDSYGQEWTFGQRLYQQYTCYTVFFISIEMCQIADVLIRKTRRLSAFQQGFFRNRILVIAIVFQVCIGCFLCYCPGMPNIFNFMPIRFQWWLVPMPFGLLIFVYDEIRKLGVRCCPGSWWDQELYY
T1 sequence (P18434 whole entry partner): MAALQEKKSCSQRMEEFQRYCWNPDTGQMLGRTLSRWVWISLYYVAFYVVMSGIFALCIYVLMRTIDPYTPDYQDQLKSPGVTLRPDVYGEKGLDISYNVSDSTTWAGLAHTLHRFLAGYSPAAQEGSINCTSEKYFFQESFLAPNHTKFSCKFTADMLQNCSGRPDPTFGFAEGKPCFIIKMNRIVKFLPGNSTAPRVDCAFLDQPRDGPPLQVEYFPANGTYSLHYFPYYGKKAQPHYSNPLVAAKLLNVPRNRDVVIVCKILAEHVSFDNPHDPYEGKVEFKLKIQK

By IC50 is commonly meant the point on the concentration scale where inhibition reaches its midpoint. For orientation: bioavailability means dose-corrected exposure relative to a reference, in per cent. One may read the AUC(0-inf) as the area under the concentration-time curve extrapolated to infinity. As to `CNCc1cn(S(=O)(=O)c2ccc(OC)nc2)c(-c2ccccc2F)c1OC` [Example 1, 1-(5-(2-Fluorophenyl)-4-methoxy-1-((6-methoxypyridin-3-yl)sulfonyl)-1H-pyrrol-3-yl)-N-methylmethanamine], the IC50 in series [1] (pH 6.5) is at most 100 nM. Besides, the IC50 in series [1] (pH 7.0) was at most 100 nM. Besides, the IC50 in series [1] (pH 7.5) was in the range of 100 to 1000 nM. For the same compound, in series [2], the “Inhibitory Activity (%) on total gastric acid secretion” value is listed as “+++ (90% or more: +++)” and the “pH of gastric juice” value was determined as 8.25 ± 0.16. Further, the “Inhibitory Activity (%) on ratio of gastric damaged area” value in series [3] was “+++ (97% or more: +++)”. Further, in series [4], the bioavailability was found to be 71.7% and the AUC(0-inf) was found to be 10200 ng·h/mL.

Turning to `CNCc1cn(S(=O)(=O)c2ccc(C)nc2)c(-c2ccc(F)cc2F)c1OC` [Example 3, 1-(5-(2,4-Difluorophenyl)-4-methoxy-1-((6-methylpyridin-3-yl)sulfonyl)-1H-pyrrol-3-yl)-N-methylmethanamine], the IC50 in series [1] (pH 6.5) was at most 100 nM. The “inhibition ability depending on pH” value in series [1] (pH 6.5, pH 7.0, pH 7.5 compared) is recorded as “higher inhibition ability in a weakly acidic condition compared to a neutral condition”. For the same compound, the IC50 in series [1] (pH 7.0) lay within 100 to 1000 nM. The IC50 in series [1] (pH 7.5) lay in the range of 100 to 1000 nM. Besides, in series [2], the “Inhibitory Activity (%) on total gastric acid secretion” value is given as “+++ (90% or more: +++)” and the “pH of gastric juice” value is recorded as 8.08 ± 0.24. Besides, the “Inhibitory Activity (%) on ratio of gastric damaged area” value in series [3] is “+++ (97% or more: +++)”. For the same compound, in series [4], the bioavailability stood at 83.8% and the AUC(0-inf) came out at 14500 ng·h/mL.
